Reference: ChEMBL document CHEMBL4823324, “Discovery of BMS-986318, a Potent Nonbile Acid FXR Agonist for the Treatment of Nonalcoholic Steatohepatitis” (ACS Med Chem Lett, 2021)
pEC50, pIC50: −log10 of the molar value.

Assays:
Cytochrome P450 2C8 = target: T1, Cytochrome P450 2C8 (Homo sapiens, UniProt P10632); assay: Inhibition of CYP2C8 (unknown origin) expressed in baculovirus infected insect supersomes preincubated for 15 mins followed by addition of NADPH regenerating system and measured after 2 hrs by fluorescence based analysis; assay type: ADME
T1 sequence (P10632 whole entry): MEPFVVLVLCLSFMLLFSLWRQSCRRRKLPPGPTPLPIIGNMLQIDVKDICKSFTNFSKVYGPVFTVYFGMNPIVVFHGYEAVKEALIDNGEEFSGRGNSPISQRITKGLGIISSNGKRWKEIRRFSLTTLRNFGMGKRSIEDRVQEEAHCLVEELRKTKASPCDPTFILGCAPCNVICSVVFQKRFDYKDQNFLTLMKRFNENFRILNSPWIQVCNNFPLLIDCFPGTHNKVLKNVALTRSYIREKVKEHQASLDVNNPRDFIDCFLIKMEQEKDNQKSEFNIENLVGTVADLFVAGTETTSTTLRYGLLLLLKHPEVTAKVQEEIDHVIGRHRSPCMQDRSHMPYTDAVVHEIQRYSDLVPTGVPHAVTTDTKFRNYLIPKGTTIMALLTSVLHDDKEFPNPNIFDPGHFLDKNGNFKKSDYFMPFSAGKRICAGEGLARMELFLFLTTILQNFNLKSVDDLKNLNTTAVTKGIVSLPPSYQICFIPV

[1] = target: T2, Oxysterols receptor LXR-alpha (Homo sapiens, UniProt Q13133); assay: Activation of human LXRalpha co-expressed with TK-luciferase reporter in African green monkey CV-1 cells incubated for overnight by Steady-Glo luciferase reporter gene based luminescence analysis; assay type: cell-based
T2 sequence (Q13133 whole entry): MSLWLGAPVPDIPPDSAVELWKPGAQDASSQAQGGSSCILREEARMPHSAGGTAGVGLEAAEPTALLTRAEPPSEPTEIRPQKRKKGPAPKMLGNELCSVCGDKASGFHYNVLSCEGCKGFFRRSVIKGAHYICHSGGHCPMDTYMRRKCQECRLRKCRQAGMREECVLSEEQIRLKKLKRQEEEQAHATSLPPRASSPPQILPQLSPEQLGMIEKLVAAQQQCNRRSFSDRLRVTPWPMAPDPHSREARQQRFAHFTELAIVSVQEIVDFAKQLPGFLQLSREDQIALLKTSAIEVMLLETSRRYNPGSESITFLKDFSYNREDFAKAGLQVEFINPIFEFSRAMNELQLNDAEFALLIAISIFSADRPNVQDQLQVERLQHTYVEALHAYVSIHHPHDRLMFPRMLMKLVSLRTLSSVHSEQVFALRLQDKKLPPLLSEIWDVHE

Androgen receptor = target: T3, Androgen receptor (Homo sapiens, UniProt P10275); assay: Activation of androgen receptor (unknown origin) by fluorescence polarization based competition assay
T3 sequence (P10275 whole entry): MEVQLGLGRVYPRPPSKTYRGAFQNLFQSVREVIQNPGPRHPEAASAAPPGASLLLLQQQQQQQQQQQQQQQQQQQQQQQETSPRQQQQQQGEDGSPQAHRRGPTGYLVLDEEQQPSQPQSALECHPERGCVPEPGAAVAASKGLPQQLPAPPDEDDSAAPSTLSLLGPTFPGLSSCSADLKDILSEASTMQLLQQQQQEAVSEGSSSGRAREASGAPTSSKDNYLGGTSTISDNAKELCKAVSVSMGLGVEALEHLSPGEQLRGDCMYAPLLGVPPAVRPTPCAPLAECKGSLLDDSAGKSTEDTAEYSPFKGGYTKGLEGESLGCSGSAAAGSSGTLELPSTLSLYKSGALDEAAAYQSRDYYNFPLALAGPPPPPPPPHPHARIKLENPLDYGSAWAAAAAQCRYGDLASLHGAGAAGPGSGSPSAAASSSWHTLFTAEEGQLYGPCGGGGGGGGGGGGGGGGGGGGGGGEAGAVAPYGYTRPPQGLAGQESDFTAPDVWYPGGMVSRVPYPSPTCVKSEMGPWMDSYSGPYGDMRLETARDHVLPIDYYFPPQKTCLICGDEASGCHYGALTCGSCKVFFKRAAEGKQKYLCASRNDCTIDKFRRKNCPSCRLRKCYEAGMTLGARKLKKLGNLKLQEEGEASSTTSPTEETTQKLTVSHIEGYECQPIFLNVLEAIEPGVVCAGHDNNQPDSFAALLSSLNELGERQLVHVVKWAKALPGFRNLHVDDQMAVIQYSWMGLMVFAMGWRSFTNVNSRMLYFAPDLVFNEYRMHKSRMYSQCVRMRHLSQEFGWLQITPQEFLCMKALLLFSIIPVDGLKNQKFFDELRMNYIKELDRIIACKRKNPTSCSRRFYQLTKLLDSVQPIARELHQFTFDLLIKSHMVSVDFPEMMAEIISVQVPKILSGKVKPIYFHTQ

[2] = target: T4, Peroxisome proliferator-activated receptor alpha (Homo sapiens, UniProt Q07869); assay: Activation of PPARalpha LBD (unknown origin) co-expressed with Gal4UAS-luciferase reporter in HEK293 cells incubated for 24 hrs by Steady-Glo luciferase reporter gene based luminescence analysis; assay type: cell-based
T4 sequence (Q07869 whole entry): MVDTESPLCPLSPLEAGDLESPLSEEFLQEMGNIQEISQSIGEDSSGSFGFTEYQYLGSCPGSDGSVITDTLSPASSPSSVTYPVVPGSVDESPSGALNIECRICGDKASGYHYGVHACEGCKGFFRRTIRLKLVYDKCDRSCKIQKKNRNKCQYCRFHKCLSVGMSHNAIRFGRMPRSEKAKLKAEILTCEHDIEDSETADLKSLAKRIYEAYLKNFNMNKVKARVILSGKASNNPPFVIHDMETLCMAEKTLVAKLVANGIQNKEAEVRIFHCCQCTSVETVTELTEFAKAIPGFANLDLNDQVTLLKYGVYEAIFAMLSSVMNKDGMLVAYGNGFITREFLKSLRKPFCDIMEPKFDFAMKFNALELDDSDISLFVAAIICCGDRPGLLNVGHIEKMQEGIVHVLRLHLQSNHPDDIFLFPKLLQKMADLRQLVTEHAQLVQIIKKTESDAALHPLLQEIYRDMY

O=C(O)c1cc(C(F)(F)F)c2cc(N3CCC4(C=C(c5c(-c6c(Cl)cncc6Cl)noc5C5CC5)C4)CC3)ccc2n1 showed a pIC50 (Cytochrome P450 2C8) of 5.38, a pEC50 [1] of less than 4.40 and a pEC50 (Androgen receptor) of less than 4.40. It also gave a pEC50 [2] of less than 4.40.
